Laboratory results as given in ChEMBL document CHEMBL1157899, “Molecular modelling, synthesis and acetylcholinesterase inhibition of ethyl 5-amino-2-methyl-6,7,8,9-tetrahydrobenzo[b][1,8]naphthyridine-3-carboxylate” (Bioorg Med Chem Lett, 2010).

Key:
Cholinesterase = Cholinesterase (Equus caballus, UniProt P81908); experiment: Inhibition of Equus caballus BuChE
Acetylcholinesterase [1] = target: Acetylcholinesterase (Electrophorus electricus, UniProt O42275); experiment: Inhibition of electric eel AChE
Sequence of Acetylcholinesterase (Electrophorus electricus, UniProt O42275) (O42275 whole entry): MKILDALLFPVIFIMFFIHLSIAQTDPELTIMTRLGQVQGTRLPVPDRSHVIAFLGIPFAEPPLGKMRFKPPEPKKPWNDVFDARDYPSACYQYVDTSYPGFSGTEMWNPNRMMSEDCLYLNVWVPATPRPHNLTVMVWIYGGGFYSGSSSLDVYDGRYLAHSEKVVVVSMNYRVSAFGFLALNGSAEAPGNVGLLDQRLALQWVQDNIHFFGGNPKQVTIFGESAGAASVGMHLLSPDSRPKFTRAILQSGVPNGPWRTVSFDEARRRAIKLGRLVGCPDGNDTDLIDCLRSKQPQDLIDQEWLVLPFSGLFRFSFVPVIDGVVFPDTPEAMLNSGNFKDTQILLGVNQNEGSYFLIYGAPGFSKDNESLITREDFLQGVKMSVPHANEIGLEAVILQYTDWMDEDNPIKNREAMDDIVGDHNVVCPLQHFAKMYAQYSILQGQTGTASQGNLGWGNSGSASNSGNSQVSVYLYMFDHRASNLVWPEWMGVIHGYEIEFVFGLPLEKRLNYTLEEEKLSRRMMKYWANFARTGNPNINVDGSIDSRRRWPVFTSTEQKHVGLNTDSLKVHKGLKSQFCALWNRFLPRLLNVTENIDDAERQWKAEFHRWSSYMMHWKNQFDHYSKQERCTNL

Acetylcholinesterase [2] = target: Acetylcholinesterase (Homo sapiens, UniProt P22303); experiment: Inhibition of human AChE
Sequence of Acetylcholinesterase (Homo sapiens, UniProt P22303) (P22303 whole entry): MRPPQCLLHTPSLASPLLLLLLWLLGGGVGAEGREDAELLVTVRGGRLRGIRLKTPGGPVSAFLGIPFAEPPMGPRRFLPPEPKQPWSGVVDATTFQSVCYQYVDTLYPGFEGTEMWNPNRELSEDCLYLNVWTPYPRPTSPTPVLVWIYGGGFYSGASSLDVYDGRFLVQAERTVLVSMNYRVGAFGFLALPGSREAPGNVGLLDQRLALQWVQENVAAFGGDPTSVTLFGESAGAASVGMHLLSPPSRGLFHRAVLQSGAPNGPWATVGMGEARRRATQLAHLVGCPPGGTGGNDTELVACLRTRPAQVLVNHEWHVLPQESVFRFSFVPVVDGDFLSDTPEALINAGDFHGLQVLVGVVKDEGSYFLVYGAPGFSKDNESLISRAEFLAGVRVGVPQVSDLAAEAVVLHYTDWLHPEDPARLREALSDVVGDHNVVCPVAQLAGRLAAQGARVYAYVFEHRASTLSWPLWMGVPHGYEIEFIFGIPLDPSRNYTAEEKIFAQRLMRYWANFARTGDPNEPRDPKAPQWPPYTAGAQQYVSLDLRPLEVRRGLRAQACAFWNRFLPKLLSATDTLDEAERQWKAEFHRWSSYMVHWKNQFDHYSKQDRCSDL

Sequence of Cholinesterase (P81908 whole entry): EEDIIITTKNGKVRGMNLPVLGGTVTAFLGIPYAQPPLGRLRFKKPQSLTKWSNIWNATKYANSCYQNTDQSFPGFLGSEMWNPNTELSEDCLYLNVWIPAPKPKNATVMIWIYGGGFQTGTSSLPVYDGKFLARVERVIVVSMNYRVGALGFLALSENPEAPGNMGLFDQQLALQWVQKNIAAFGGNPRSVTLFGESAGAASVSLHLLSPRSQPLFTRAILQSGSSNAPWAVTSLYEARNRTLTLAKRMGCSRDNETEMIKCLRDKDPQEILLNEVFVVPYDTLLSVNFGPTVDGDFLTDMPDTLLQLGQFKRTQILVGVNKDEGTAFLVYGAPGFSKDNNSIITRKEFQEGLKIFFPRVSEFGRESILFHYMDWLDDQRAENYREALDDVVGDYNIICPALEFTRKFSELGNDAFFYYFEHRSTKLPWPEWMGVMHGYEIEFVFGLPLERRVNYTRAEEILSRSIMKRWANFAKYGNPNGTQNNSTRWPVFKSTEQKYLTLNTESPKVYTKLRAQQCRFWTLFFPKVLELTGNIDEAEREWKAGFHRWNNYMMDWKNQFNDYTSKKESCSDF

For `CCOC(=O)c1c(C)nc2nc3c(c(N)c2c1-c1ccccc1)CCCC3`, the IC50 (Cholinesterase; read-out: IC50) was 5.03 µM.
Work on `CCOC(=O)c1cc2c(N)c3c(nc2nc1C)CCCC3` yielded an IC50 (Acetylcholinesterase [1]) of 0.06 µM, an IC50 (Cholinesterase; read-out: IC50) of 12 µM and an IC50 (Acetylcholinesterase [2]) of 0.78 µM.
In the case of `Cc1nc2nc3c(c(N)c2cc1C(=O)[O-])CCCC3.[Na+]`, the IC50 (Acetylcholinesterase [1]) is reported as 5.3 µM and the IC50 (Cholinesterase) is reported as “Not Active”.
For `Cc1nc2nc3c(c(N)c2cc1C(=O)O)CCCC3`, the IC50 (Acetylcholinesterase [1]) was 15 µM and the IC50 (Cholinesterase) was “Not Active”.
